In patent US20170095512A1, “METHODS OF INDUCING MYELINATION AND MATURATION OF OLIGODENDROCYTES” (KADIMASTEM LTD., priority 2014, published 2017):

System: glial progenitor cells derived from human ES cells (Olig2 positive cells)
Assay: hOPC differentiation assay, Olig2 positive cells (immunostaining, high content screening)
Assay type: cell-based
Conditions: PDGF 20 ng/ml added during LDN-193189 dose-response assay, 21 days
Protocol: In order to initiate differentiation 20,000 GPCs were seeded in each well of Matrigel coated plates of 96 wells, or on PolyD-Lysine/laminin (PDL/lam)-coated 96 well plates. Cells were grown in GM media for two to three days. Then GM was replaced by differentiation medium without growth factors, (DMEM/F12, 1% B27, 0.5% N2, Vitamin C (Sigma, 50 ug/ml). Differentiation medium was supplemented with the following tested compounds: […] All media were replaced every other day. The oligodendrocyte lineage cells were characterized by the expression of a transcription factor olig2. The rabbit polyclonal AB anti olig2 (Millipore cat AB9610) was added to PFA fixed cells. […] The fixed cells were washed three times in blocking solution, olig2 diluted 1/500, in blocking solution, was added for 1 hour. The fixed cells were washed with PBS 3 times and goat anti rabbit Alexa Fluor 568 1/500 in PBS was added for 45 minutes. The fixed cells were washed three times. ArrayScan VTI HCS reader system (Cellomis, Thermo-scientific) was used for scanning at least 20 fields for each tested well under 10× objective in both assays (differentiation and myelination). Cellomics Neural profiling bio-application was used for processing and analyzing the images. For differentiation assay, the following parameters were tested: number and percentage of O4+ cells, number of processes, processes length and number of branching points. For myelination assay, the same morphological parameters were tested and in addition: areas of myelinated axons in pixels (MBP&NF overlap area) and Number of myelinated regions (MBP&NF overlap count) were also analyzed. Modifications in the Neuro-profiling bio-application were conducted for this specific purpose. T-test analysis was used to compare between treatments. The 4-parameter Hill-Slope curve fittings were generated by GraphPad Prism software using least squares fitting method and EC50 values were calculated. […] The cells at passage five were cultured for three days with GM on 96 well plates and after fixation, cells were reacted with anti-olig2 Ab, and olig2 positive cells and nuclei were scanned in the Thermo Scientific™ ArrayScan™ XTI High Content Analysis (HCA) Reader and counted with the neural profiling program. On the other hand the cells surface antigens O4 and PDGFRa were detected on dissociated cells after fixation and reaction with O4 Ab conjugated to APC, anti PDGFRa PE, as well as A2B5 PE all obtained from BD. Flow cytometry was conducted in BD FACS Canto II. […] Time points used for analysis are 21, 28, 35 and 42 days of differentiation, for each time point 20 fields were analyzed. […] In this experiment, cells at passage 4 were pretreated in differentiation medium with Noggin for 14 days, and split before seeding on 96 well plates.

PDGF: human recombinant PDGFAA (R&D)
number of olig2 positive cells on addition of PDGF: increases the number of olig2 positive cells about two folds
